These results are taken from publication PMC10974284, “Discovery of Novel 4-Hydroxyquinazoline Derivatives: In Silico, In Vivo and In Vitro Studies Using Primary PARPi-Resistant Cell Lines” (Molecules, 2024).

Like-named read-outs stand apart in the source and are kept apart here.

For orientation: IC50 means the concentration needed to halve the response being measured. The inhibition is the drop in the measured response relative to a control, in per cent. For orientation: melting point means the temperature, or range, at which the solid turns liquid.

Data set [1] has as its system HCT-15 cell lines. Description: MTT cytotoxicity assay, HCT-15. The class given is cell-based, human. To be noted: Homo sapiens, HCT-15. As for the experimental part: (§1) After treatment with target compounds at the different concentrations, MTT was added and the cells were incubated for another 4 h. The IC50 values of the selected compounds were evaluated by the same method. The cells were treated with compounds at different concentrations. The OD values were detected using a microplate reader at 570 nm.
Background: Tetrazolium dyes change colour on reduction, which living cells bring about.

Data set [2] relates to HCC1937 cell lines. The data set can be described thus: MTT cytotoxicity assay, HCC1937. Type of data set: cell-based, human. To be noted: Homo sapiens, HCC1937. As for the experimental part:
as §1

In another data set the test system is MDA-MB-231. Description: MTT cytotoxicity assay, MDA-MB-231. Type of data set: cell-based. To be noted: Homo sapiens. As to the method:
as §1

A further data set has as its system LO2. The data set can be described thus: MTT cytotoxicity assay, LO2 normal hepatocytes. To be noted: L02, 72 h; 3 days, human normal hepatocytes. The class given is cell-based. As for the experimental part: as §1
The next data set concerns NCM460. Description: MTT cytotoxicity assay, NCM460 normal colonic epithelial cells. The class given is cell-based. To be noted: NCM460, 72 h; 3 days, human normal colonic epithelial cells. As to the method:
as §1

Data set [3] deals with HCT-15 cell lines. The data set can be described thus: Cell apoptosis assay (Annexin V-FITC/PI flow cytometry), HCT-15. To be noted: HCT-15, 20 μM, 48 h. Type of data set: cell-based, human. As for the experimental part:
(§2) The cells were seeded in 6-well plates with 1 × 10^5 cells per well and incubated for 24 h. […] The cells were digested, collected, and resuspended in the binding buffer. After adding 5 μL of Annexin V-FITC and 10 μL of propidium iodide (PI), the cells were incubated for 30 min away from light; this was followed by detection using flow cytometry (Beckman Coulter).
(In flow cytometry, cells or beads pass a laser one at a time.)

Data set [4] relates to HCC1937 cell lines. The data set can be described thus: Cell apoptosis assay (Annexin V-FITC/PI flow cytometry), HCC1937. Type of data set: cell-based, human. To be noted: HCC1937, 20 μM, 48 h. As for the experimental part: as §2
Data set [5] deals with PAR formation in HCT-15 cell lines. Description: Immunofluorescence analysis of PAR, H2O2-treated HCT-15. The class given is cell-based, human. As for the experimental part: (§3) The cells were seeded in 6-well plates with 1 × 10^5 cells per well and incubated for 24 h. […] Cells were fixed with addition of 4% paraformaldehyde, and immunostaining blocking solution was added at room temperature for 20 min. […] Then, a […] staining solution (DAPI) was added for staining, the […] staining solution was aspirated, and the well washed 3 times with washing solution. Photographs were taken through a Leica SP8 Laser confocal microscope.

The test system of data set [6] is PAR formation in HCC1937 cell lines. Description: Immunofluorescence analysis of PAR, H2O2-treated HCC1937. The class given is cell-based, human. As for the experimental part: as §3
Data set [7] has as its system γH2AX in HCT-15 cell lines. Description: Immunofluorescence analysis of γH2AX, HCT-15. The class given is cell-based, human. To be noted: HCT-15, 10 μM. As for the experimental part: as §3
For data set [8], the system named is γH2AX in HCC1937 cell lines. Description: Immunofluorescence analysis of γH2AX, HCC1937. The class given is cell-based, human. To be noted: HCC1937, 10 μM. As for the experimental part: as §3
In data set [9] the test system is Caspase-3, cleaved Caspase-3, Bax, Bcl-2 in HCT-15 cell lines. Description: Western blot of apoptosis-related proteins, HCT-15. To be noted: HCT-15, 1.25-20 μM, 48 h. Type of data set: cell-based, human. As for the experimental part:
(§4) Subsequently, the cells were lysed with RIPA lysis buffer and protein samples were prepared. Denatured proteins were separated by 10% SDS-PAGE electrophoresis and transferred to a PVDF membrane. The membrane was blocked with 5% blocking solution for 2 h. The membrane was incubated overnight at 4 °C with specific primary antibody. Then, the membrane was rinsed three times with TBST, secondary antibody was added, and the membrane was incubated at room temperature for 2 h. Finally, the target protein was detected by the ECL detection system. The relative expression was quantified using Image J (National Institutes of Health).

Data set [10] relates to Caspase-3, cleaved Caspase-3, Bax, Bcl-2 in HCC1937 cell lines. Description: Western blot of apoptosis-related proteins, HCC1937. Type of data set: cell-based, human. To be noted: HCC1937, 1.25-20 μM, 48 h. As for the experimental part:
as §4
(In general: A western blot detects proteins with antibodies after separation by electrophoresis.)

Data set [11] has as its system HCT-15 cell lines. The data set can be described thus: Mitochondrial membrane potential assay (JC-1), HCT-15. Type of data set: cell-based, human. An excerpt:
(§5) Cell culture methods were the same as for the cell apoptosis assay.
(§6) The experimental operation was the same as ROS, only replacing the DCFH-DA probe with the JC-1 probe.

The subject of data set [12] is HCC1937 cell lines. Description: Mitochondrial membrane potential assay (JC-1), HCC1937. The class given is cell-based, human.
Excerpt: as §5, §6

Data set [13] has as its system HCT-15 nude mouse xenograft model. Description: In vivo anti-tumor study. As for the experimental part:
The tumor volume and mouse body weight were recorded, and the corresponding tissues were analyzed.
All experimental procedures were performed according to the National Institutes of Health guidelines for the use of laboratory animals, and an application was made to the Institutional Animal Care and Use Committee, Shandong Second Medical University, which was approved. […] When the tumor volume reached about 80–150 mm^3, the mice were randomly divided into three groups (the control group, and different concentration administration group) and administered for 14 consecutive days, while the tumor volume was measured once every two days and the body weight of the mice was recorded. At the end stage, mice were killed by neck-breaking and tumor tissues were removed. All the photographs were taken through a Leica SP8 Laser confocal microscope.

Data set [14] can be described thus: Acute toxicity study in mice. Type of data set: in vivo, mouse. To be noted: single intraperitoneal injection 800 mg/kg, monitored 14 days. As for the experimental part: The mice were administered a single intraperitoneal injection dose of 800 mg/kg and were constantly monitored for 14 days.
The next data set concerns the target T1, PARP1 (Homo sapiens, UniProt P09874).
T1 construct: purchased Sigma-Aldrich 17-10149
The data set can be described thus: PARP1 enzyme inhibition assay (commercial kit). The class given is biochemical.

Where [15] appears, read: 72 h (3-Days) drug exposure, MTT, read-out: IC50 HCT-15.
The mark [16] stands for this setting: 72 h (3-Days) drug exposure, MTT, read-out: IC50 HCC1937.

T1 sequence (P09874 whole entry): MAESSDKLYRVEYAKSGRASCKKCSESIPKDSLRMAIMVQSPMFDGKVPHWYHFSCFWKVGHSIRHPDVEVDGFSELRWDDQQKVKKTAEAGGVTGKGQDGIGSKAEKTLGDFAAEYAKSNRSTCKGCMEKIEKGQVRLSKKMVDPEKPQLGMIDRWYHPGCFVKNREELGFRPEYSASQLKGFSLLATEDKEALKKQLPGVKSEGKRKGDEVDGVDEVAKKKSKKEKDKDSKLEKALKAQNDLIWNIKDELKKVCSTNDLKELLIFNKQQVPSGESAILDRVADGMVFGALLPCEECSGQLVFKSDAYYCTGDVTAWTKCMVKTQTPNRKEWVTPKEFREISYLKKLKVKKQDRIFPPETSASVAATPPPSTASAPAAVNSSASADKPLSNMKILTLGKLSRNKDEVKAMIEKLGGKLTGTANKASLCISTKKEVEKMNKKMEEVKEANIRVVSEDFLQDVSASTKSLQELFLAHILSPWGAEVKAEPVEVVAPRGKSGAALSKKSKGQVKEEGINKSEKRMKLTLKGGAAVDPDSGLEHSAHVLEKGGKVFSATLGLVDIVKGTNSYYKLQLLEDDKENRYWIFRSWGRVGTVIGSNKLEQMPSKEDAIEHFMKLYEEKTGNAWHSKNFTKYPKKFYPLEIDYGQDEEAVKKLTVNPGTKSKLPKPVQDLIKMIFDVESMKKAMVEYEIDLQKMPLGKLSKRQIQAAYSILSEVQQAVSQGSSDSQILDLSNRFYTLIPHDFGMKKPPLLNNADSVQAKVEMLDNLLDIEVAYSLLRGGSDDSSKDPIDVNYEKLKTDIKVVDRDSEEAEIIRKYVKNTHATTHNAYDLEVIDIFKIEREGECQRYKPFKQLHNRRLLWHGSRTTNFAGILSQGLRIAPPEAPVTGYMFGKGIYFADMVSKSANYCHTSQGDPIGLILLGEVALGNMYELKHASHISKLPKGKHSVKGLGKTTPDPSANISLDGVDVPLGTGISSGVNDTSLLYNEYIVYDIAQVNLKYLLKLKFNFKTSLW

Take `Cc1ccc(Cl)cc1NC(=O)N1C2CC1CN(Cc1nc3ccccc3c(=O)[nH]1)C2` [B1, N-(5-chloro-2-methylphenyl)-3-((4-oxo-3,4-dihydroquinazolin-2-yl)methyl)-3,6-diazabicyclo[3.1.1]heptane-6-carboxamide]: the IC50 with HCT-15 cell lines [1] (setting [15]) was found to be 2.89 ± 0.78 µM; with HCT-15 cell lines [1] (7 days drug treatment, read-out: IC50 HCT-15 7-Days), 0.13 ± 0.03 µM; with HCC1937 cell lines [2] (setting [16]) it was 3.26 ± 0.38 µM; with HCC1937 cell lines [2] (7 days drug treatment, read-out: IC50 HCC1937 7-Days) it was 0.17 ± 0.04 µM; in the data set with MDA-MB-231 (MDA-MB-231, 72 h, 3 days, read-out: IC50 MDA-MB-231 3-Days), 11.3 ± 1.93 µM; in the data set on MDA-MB-231 (MDA-MB-231, 7 days, read-out: IC50 MDA-MB-231 7-Days) it was 1.33 ± 0.51 µM. The IC50 in the data set on LO2 and with NCM460 was more than 100 µM throughout. The apoptosis rate in the data set with HCT-15 cell lines [3] came to 73.58%; in the data set with HCC1937 cell lines [4], 53.14%. In addition, the “PAR aggregation (green fluorescence)” value is “green fluorescence obviously weakened” in data set [5] (H2O2-treated HCT-15, 1.25 μM); “green fluorescence almost disappeared” in data set [5] (H2O2-treated HCT-15, 5 μM); “green fluorescence obviously weakened” in data set [6] (H2O2-treated HCC1937, 1.25 μM); “green fluorescence almost disappeared” in [6] (H2O2-treated HCC1937, 5 μM). Also, the “expression of γH2AX” value in data set [7] and in data set [8] was “significantly increased” each time. In addition, the Bax expression result in [9] and in data set [10] was “considerably increased Bax expression” in each case. In addition, the Bcl-2 expression entry in data set [9] and in [10] was “decreased Bcl-2 expression” each time. The Caspase-3 activation entry in data set [9] and in [10] was “activated Caspase-3” throughout. Moreover, the “mitochondrial membrane potential (JC-1 fluorescence)” value is “green fluorescence began to change significantly” in the data set with HCT-15 cell lines [11] (HCT-15, 5 μM); “the intensity of red fluorescence was hardly visible” in the data set on HCT-15 cell lines [11] (HCT-15, 20 μM); “green fluorescence began to change significantly” in the data set with HCC1937 cell lines [12] (HCC1937, 5 μM); “the intensity of red fluorescence was hardly visible” in the data set on HCC1937 cell lines [12] (HCC1937, 20 μM). In data set [13] (10 mg/kg intraperitoneally once daily for 14 days), the “tumor cell morphology (H&E)” value is “irregular morphological alterations and severe vacuolization”. For the same molecule, the “xenograft tumor growth (tumor volume and weight)” value in data set [13] (25 mg/kg intraperitoneally once daily for 14 days) and in [13] (50 mg/kg intraperitoneally once daily for 14 days) was “significantly inhibited xenograft tumor growth” in each case. Also, the “body weight, acute toxicity” value in data set [14] is “no significant reduction in body weight”. For the same molecule, in data set [14], the “major organs (H&E), acute toxicity” value is on record as “no significant changes in heart, liver, spleen, lung, or kidney”.

In the case of `O=C(Nc1ccc(F)cc1F)N1CCN(Cc2nc3ccccc3c(=O)[nH]2)CC1` [IN17], the inhibition at 50 µM was 63.3% in the data set on HCT-15 cell lines [1] (50 μM, 72 h, MTT, read-out: Inhibition rate (%) HCT-15) and 60.6% with HCC1937 cell lines [2] (50 μM, 72 h, MTT, read-out: Inhibition rate (%) HCC1937). Moreover, the IC50 in the data set on HCT-15 cell lines [1] (setting [15]) is 33.5 ± 1.79 µM; in the data set on HCC1937 cell lines [2] (setting [16]), 34.3 ± 2.68 µM; on PARP1, 0.4713 ± 0.00318 µM; against PARP1 (as printed in the text), 0.47 ± 0.0032 µM. For the same molecule, the inhibition at 0.5 µM at PARP1 (0.5 μM, read-out: Inhibition rate (%) PARP1) came out at 53.1%.

Take `O=C(Nc1cccc(Cl)c1)N1CCN(Cc2nc3ccccc3c(=O)[nH]2)CC1` [A5, N-(3-chlorophenyl)-4-((4-oxo-3,4-dihydroquinazolin-2-yl)methyl)piperazine-1-carboxamide]: the melting point was 193.3 to 195.2 °C. In addition, in the data set with HCT-15 cell lines [1] (setting [15]), the IC50 came out at 19.1 ± 0.79 µM. In addition, the IC50 in the data set with HCC1937 cell lines [2] (setting [16]) turned out to be 25.9 ± 0.96 µM.

For the molecule `O=C(Nc1cc(F)cc(F)c1)N1CCN(Cc2nc3ccccc3c(=O)[nH]2)CC1` [A34, N-(3,5-difluorophenyl)-4-((4-oxo-3,4-dihydroquinazolin-2-yl)methyl)piperazine-1-carboxamide], the melting point is 199.8 to 200.2 °C. For the same molecule, the half-inhibitory concentration (IC50) in the data set with HCT-15 cell lines [1] (setting [15]) amounted to 47.2 ± 3.35 µM. For the same molecule, the IC50 in the data set on HCC1937 cell lines [2] (setting [16]) is more than 50 µM.

In the case of `O=C(Nc1ccccc1Cl)N1CCN(Cc2nc3ccccc3c(=O)[nH]2)CC1` [A4, N-(2-chlorophenyl)-4-((4-oxo-3,4-dihydroquinazolin-2-yl)methyl)piperazine-1-carboxamide], the melting point was in the range of 197.9 to 199.6 °C. Besides, the IC50 in the data set with HCT-15 cell lines [1] (setting [15]) was 19.1 ± 1.12 µM. The IC50 in the data set with HCC1937 cell lines [2] (setting [16]) amounted to 14.7 ± 1.67 µM.
